Assay results from BindingDB's records for doi:10.1016/j.bmc.2012.01.022 (Florida A&M University, 2012).

How the values were obtained:
[1] = molecular target: D(2) dopamine receptor (Homo sapiens, UniProt P14416); assay: Displacement of [3H]-N-methylspiperone from dopamine D2 receptor expressed in human MES-23.5 cells
[2] = molecular target: 5-hydroxytryptamine receptor 2A (Homo sapiens, UniProt P28223); assay: Binding affinity at 5-HT2A receptor by radioligand displacement assay
[3] = molecular target: T1, 5-hydroxytryptamine receptor 2C (Homo sapiens, UniProt P28335); assay: Binding affinity at 5-HT2C receptor by radioligand displacement assay
T1 sequence (P28335 whole entry): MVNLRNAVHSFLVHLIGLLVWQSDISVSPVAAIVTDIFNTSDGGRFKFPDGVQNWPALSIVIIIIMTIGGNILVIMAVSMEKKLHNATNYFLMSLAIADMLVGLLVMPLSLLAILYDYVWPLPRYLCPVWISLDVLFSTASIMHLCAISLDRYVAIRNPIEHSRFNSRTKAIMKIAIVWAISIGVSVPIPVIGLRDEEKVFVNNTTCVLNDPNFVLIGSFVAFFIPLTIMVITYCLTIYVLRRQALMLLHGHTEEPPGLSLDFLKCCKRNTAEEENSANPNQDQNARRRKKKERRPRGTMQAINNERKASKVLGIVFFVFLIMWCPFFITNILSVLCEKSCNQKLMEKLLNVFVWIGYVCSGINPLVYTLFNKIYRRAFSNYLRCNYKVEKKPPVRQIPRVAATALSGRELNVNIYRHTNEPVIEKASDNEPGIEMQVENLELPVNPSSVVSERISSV

[4] = molecular target: Histamine H1 receptor (Homo sapiens, UniProt P35367); assay: Displacement of [3H]-Pyrilamine from human histamine H1 receptor by liquid scintillation counter
Histamine H1 receptor, sequence (P35367 whole entry): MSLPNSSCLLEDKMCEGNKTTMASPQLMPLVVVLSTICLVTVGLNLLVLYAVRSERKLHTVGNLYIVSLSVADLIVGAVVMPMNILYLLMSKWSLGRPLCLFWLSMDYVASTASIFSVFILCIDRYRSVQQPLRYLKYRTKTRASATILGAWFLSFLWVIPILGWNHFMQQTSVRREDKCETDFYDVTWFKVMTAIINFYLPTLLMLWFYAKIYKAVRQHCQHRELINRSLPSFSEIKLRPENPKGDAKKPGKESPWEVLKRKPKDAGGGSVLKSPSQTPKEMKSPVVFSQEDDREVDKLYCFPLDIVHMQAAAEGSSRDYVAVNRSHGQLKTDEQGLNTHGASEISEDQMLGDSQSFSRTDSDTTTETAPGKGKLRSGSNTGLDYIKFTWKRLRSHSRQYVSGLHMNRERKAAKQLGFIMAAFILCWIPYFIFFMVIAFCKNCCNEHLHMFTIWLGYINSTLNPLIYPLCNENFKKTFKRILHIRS

5-hydroxytryptamine receptor 2A, sequence (P28223 whole entry): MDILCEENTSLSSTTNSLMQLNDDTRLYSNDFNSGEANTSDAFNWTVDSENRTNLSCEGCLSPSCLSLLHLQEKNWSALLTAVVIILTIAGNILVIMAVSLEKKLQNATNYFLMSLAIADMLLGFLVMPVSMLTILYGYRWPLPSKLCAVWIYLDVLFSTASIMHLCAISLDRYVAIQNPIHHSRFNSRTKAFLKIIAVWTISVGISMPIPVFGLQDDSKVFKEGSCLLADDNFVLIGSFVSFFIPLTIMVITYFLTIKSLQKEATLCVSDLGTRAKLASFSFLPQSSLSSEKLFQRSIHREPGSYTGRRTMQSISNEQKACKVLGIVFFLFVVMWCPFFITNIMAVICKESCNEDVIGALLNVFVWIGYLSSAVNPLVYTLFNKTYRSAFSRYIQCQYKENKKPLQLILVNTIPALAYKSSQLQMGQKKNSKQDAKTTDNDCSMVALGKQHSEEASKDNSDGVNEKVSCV
D(2) dopamine receptor, sequence (P14416 whole entry): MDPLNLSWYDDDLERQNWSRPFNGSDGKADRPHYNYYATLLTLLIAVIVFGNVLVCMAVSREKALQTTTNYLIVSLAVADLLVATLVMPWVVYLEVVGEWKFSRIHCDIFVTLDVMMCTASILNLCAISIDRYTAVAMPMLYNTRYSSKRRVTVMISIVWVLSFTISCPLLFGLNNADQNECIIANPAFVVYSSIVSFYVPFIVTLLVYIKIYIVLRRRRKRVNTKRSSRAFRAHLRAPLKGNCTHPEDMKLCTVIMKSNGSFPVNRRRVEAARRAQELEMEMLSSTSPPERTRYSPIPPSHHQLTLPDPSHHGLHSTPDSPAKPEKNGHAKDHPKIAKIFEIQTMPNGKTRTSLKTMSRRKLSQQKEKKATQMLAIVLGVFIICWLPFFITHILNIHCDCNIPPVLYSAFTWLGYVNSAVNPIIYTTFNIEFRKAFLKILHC

Compound	Ki [1]	Ki [2]	Ki [3]	Ki [4]
O=C(CCCCN1[C@@H]2CC[C@H]1CC(O)(c1ccc(Cl)cc1)C2)c1nc2ccccc2s1 (some centres undefined)	0.18 µM	–	–	–
OC1(c2ccc(Cl)cc2)C[C@H]2CC[C@@H](C1)N2CCCCc1nc2ccccc2s1 (some centres undefined)	–	> 10 µM	4.62 µM	0.187 µM
